Reference: ChEMBL document CHEMBL1201862, “PubChem BioAssay data set” (2004)
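The compound was tested at five concentrations on cells cultured in 96-well plates, with a 48-hour exposure period. GI50 is the concentration that inhibits growth by half.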 Calls of active or inactive are those of the source. No stated cut-off is given here; in the data, active = GI50 up to about 1.1 µM and inactive = higher.

Experiments:
Experiment in all cases: NCI anticancer screen, dose series, 48 h
HL-60 = test system: HL-60
OVCAR-3 = test system: OVCAR-3
MDA-MB-435 = test system: MDA-MB-435
SK-MEL-5 = test system: SK-MEL-5
IGROV-1 = test system: IGROV-1
SNB-19 = test system: SNB-19
OVCAR-5 = test system: OVCAR-5
UO-31 = test system: UO-31
HCT-116 = test system: HCT-116
NCI-H226 = test system: NCI-H226
RPMI-8226 = test system: RPMI-8226
NCI-H522 = test system: NCI-H522
M14 = test system: M14
SNB-75 = test system: SNB-75
SK-MEL-28 = test system: SK-MEL-28
HCC 2998 = test system: HCC 2998
NCI-H460 = test system: NCI-H460
SF-539 = test system: SF-539
UACC-257 = test system: UACC-257

Measured: GI50

CC(=O)OI1NC(=O)c2ccccc21
inactive: HL-60 > 100 µM | OVCAR-3 > 100 µM | MDA-MB-435 > 100 µM | SK-MEL-5 > 100 µM | IGROV-1 > 100 µM | SNB-19 > 100 µM | OVCAR-5 > 100 µM | UO-31 > 100 µM | HCT-116 > 100 µM | NCI-H226 > 100 µM | RPMI-8226 > 100 µM | NCI-H522 80.2 µM | M14 > 100 µM | SNB-75 > 100 µM | SK-MEL-28 > 100 µM

COc1ccc(CNc2cnc3cc(N)ccc3n2)cc1OC
inactive: HL-60 > 100 µM | OVCAR-3 > 100 µM | SK-MEL-5 > 100 µM | SNB-19 > 100 µM | OVCAR-5 > 10 µM | HCC 2998 > 100 µM | UO-31 > 100 µM | HCT-116 > 100 µM | NCI-H226 > 100 µM | NCI-H460 > 100 µM | SF-539 > 100 µM | UACC-257 > 100 µM | RPMI-8226 > 100 µM | NCI-H522 > 100 µM | M14 > 100 µM | SNB-75 > 100 µM | SK-MEL-28 > 100 µM

COc1cc2c3c(c1OC)C(=O)C=C3N(S(=O)(=O)c1ccc(C)cc1)CC2
inactive: HL-60 > 100 µM | OVCAR-3 > 100 µM | SK-MEL-5 > 100 µM | IGROV-1 > 100 µM | SNB-19 > 100 µM | OVCAR-5 > 100 µM | HCC 2998 > 100 µM | UO-31 > 100 µM | HCT-116 > 100 µM | NCI-H226 > 100 µM | NCI-H460 > 100 µM | SF-539 52.7 µM | UACC-257 > 100 µM | RPMI-8226 > 100 µM | NCI-H522 10.4 µM | M14 > 100 µM | SNB-75 46.9 µM | SK-MEL-28 > 100 µM

COc1ccc(/C(Cl)=C(\C=O)c2ccc(Br)cc2)cc1OC
inactive: HL-60 17 µM | OVCAR-3 > 100 µM | SK-MEL-5 > 100 µM | IGROV-1 > 100 µM | SNB-19 26.3 µM | OVCAR-5 > 100 µM | HCC 2998 > 100 µM | UO-31 > 100 µM | NCI-H226 19.5 µM | NCI-H460 > 68.9 µM | SF-539 26.1 µM | UACC-257 > 100 µM | RPMI-8226 3.69 µM | NCI-H522 51.8 µM | M14 > 100 µM | SNB-75 2.81 µM | SK-MEL-28 > 100 µM

Nc1ccc(C2=Nc3ccccc3SC(c3ccccc3O)C2)cc1 (configuration not stated)
inactive: HL-60 23.9 µM | OVCAR-3 23.3 µM | SK-MEL-5 26.1 µM | IGROV-1 46.6 µM | SNB-19 43.1 µM | OVCAR-5 > 100 µM | HCC 2998 32.1 µM | UO-31 29.8 µM | NCI-H226 33.3 µM | NCI-H460 30.6 µM | SF-539 38.2 µM | UACC-257 51.9 µM | RPMI-8226 17.5 µM | NCI-H522 21.3 µM | M14 54.6 µM | SNB-75 24.7 µM | SK-MEL-28 65.8 µM

C#CCSc1nc(N)c2ncn(C3OC(COP(=O)(O)O)C(O)C3O)c2n1 (configuration not stated)
inactive: HL-60 > 239 µM | OVCAR-3 > 239 µM | SK-MEL-5 > 239 µM | IGROV-1 > 239 µM | SNB-19 > 239 µM | OVCAR-5 > 239 µM | HCC 2998 > 239 µM | UO-31 > 239 µM | HCT-116 > 239 µM | NCI-H226 > 239 µM | NCI-H460 > 239 µM | SF-539 > 239 µM | UACC-257 > 239 µM | RPMI-8226 > 239 µM | NCI-H522 > 239 µM | M14 > 239 µM | SNB-75 > 239 µM | SK-MEL-28 > 239 µM

CCOC(=O)C1=C(O)C(=O)c2cc(OC)ccc2C1=O
inactive: HL-60 > 100 µM | OVCAR-3 > 100 µM | SK-MEL-5 49.1 µM | IGROV-1 > 100 µM | SNB-19 38.9 µM | OVCAR-5 > 100 µM | HCC 2998 > 100 µM | UO-31 63 µM | HCT-116 95.5 µM | NCI-H226 38.5 µM | NCI-H460 > 100 µM | SF-539 65.9 µM | UACC-257 35.1 µM | RPMI-8226 > 100 µM | NCI-H522 55.7 µM | M14 > 100 µM | SNB-75 20.9 µM | SK-MEL-28 > 100 µM

C[C@H]1[C@H](C)CC[C@]2(C(=O)O)CCC3(COC(=O)/C=C/c4ccc(O)cc4)C(=CCC4[C@@]5(C)CC[C@H](O)C(C)(C)C5CC[C@]43C)[C@H]12 (some centres not stated)
inactive: HL-60 7.96 µM | OVCAR-3 4.8 µM | SK-MEL-5 11 µM | IGROV-1 3.46 µM | SNB-19 5.11 µM | OVCAR-5 14.8 µM | HCC 2998 5.45 µM | UO-31 4.82 µM | HCT-116 3.62 µM | NCI-H226 7.91 µM | NCI-H460 3.09 µM | SF-539 4.17 µM | UACC-257 14.7 µM | RPMI-8226 5.05 µM | NCI-H522 3.78 µM | M14 11.2 µM | SNB-75 10.2 µM | SK-MEL-28 10.8 µM

COc1ccc(/C=C/c2cc(OC)cc(=O)o2)cc1 [YANGONIN]
inactive: HL-60 > 100 µM | OVCAR-3 > 100 µM | MDA-MB-435 > 100 µM | SK-MEL-5 > 100 µM | IGROV-1 > 100 µM | SNB-19 50.4 µM | OVCAR-5 > 100 µM | HCC 2998 > 100 µM | UO-31 > 100 µM | HCT-116 77.6 µM | NCI-H226 > 100 µM | NCI-H460 > 100 µM | SF-539 10.2 µM | UACC-257 > 100 µM | RPMI-8226 > 100 µM | M14 68.4 µM | SNB-75 20 µM | SK-MEL-28 > 100 µM

CCCCCCCCCCCCCCCC(=O)OCC(O)C1OC(=O)C(O)=C1O (configuration not stated)
inactive: HL-60 29.5 µM | OVCAR-3 > 100 µM | MDA-MB-435 21 µM | SK-MEL-5 > 100 µM | IGROV-1 37.6 µM | SNB-19 30.1 µM | OVCAR-5 33.9 µM | HCC 2998 > 100 µM | UO-31 28.9 µM | HCT-116 19.3 µM | NCI-H226 22.9 µM | NCI-H460 > 100 µM | SF-539 27.4 µM | UACC-257 > 100 µM | NCI-H522 34.4 µM | M14 18.8 µM | SNB-75 16.1 µM | SK-MEL-28 20.4 µM

CC(C)N(C(=O)C12C3C4C1C1C4(C#N)C3C12C(=O)O)C(C)C (configuration not stated)
inactive: HL-60 > 45.5 µM | OVCAR-3 > 100 µM | SK-MEL-5 > 100 µM | IGROV-1 > 100 µM | SNB-19 > 100 µM | OVCAR-5 > 100 µM | HCC 2998 > 100 µM | UO-31 > 100 µM | HCT-116 > 52.8 µM | NCI-H226 > 100 µM | NCI-H460 > 67.3 µM | SF-539 > 100 µM | UACC-257 > 100 µM | RPMI-8226 > 43.1 µM | NCI-H522 > 69.3 µM | M14 > 100 µM | SNB-75 > 100 µM | SK-MEL-28 > 100 µM
